Data as given in ChEMBL document CHEMBL3886283, “Cycloalkyl and heterocycloalkyl compounds as orexin receptor antagonists” (2015).

Tests used:
Orexin receptor type 2 = biological target: T1, Orexin receptor type 2 (Homo sapiens, UniProt O43614); type: functional, cell-based, RBL-2H3
T1 sequence (O43614 whole entry): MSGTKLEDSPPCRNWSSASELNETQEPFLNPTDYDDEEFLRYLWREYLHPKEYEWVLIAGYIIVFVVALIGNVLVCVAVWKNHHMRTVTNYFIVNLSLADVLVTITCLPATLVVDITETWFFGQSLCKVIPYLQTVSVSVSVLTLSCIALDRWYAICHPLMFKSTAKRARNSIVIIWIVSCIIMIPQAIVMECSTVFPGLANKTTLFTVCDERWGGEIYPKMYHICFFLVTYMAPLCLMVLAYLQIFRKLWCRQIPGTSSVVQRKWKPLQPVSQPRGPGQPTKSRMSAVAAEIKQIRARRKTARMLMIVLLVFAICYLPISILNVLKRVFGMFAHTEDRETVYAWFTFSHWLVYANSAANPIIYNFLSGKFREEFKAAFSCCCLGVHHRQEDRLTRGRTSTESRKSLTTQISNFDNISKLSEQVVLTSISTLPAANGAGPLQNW

[1] = biological target: T2, Orexin/Hypocretin receptor type 1 (Homo sapiens, UniProt O43613); type: functional, cell-based, RBL-2H3
T2 sequence (O43613 whole entry): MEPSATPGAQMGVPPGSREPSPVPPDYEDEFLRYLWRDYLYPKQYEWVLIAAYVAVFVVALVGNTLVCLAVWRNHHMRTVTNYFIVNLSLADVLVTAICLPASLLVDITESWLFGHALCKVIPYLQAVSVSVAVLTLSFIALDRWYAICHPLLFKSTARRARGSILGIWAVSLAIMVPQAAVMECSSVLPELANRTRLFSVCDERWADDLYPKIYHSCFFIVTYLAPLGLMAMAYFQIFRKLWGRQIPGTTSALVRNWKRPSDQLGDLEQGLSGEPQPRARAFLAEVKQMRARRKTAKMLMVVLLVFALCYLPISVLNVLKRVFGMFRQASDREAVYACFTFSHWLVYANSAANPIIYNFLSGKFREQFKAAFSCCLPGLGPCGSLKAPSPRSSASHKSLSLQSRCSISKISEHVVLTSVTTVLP

| Structure (SMILES) | IC50 (Orexin receptor type 2) | IC50 [1] |
| --- | --- | --- |
| O=C(N[C@H]1CCC[C@@H]1Nc1ccc(OC(F)(F)F)cn1)c1cc(Cl)ccc1-n1nccn1 | > 10000 nM | 406 nM |
| Cc1ccc(-n2nccn2)c(C(=O)N[C@H]2CCC[C@@H]2Nc2ccc(Cl)cn2)c1 | > 10000 nM | 270 nM |
| COc1cccc(Br)c1C(=O)N[C@H]1CCC[C@@H]1Nc1cnc(C(F)(F)F)cn1 | > 10000 nM | 367 nM |
